Values belong to the compound of their own block, whether it stands above or below them.
Columns and labels:
[1] = target: Serine/threonine-protein kinase 38 (Homo sapiens) (UniProt Q15208); test: Selectivity interaction (ActivX KiNativ screen (kinase selectivity in THP-1 cell lysates)) EUB0000639a STK38; assay type: subcellular; settings: lysate, at 0.04 µM
[2] = target: T1, Serine/threonine-protein kinase BRSK2 (Homo sapiens) (UniProt Q8IWQ3); test: Selectivity interaction (LanthaScreen Eu Kinase Binding Assay) EUB0001632a BRSK2; settings: at 10 µM
T1 sequence (whole entry): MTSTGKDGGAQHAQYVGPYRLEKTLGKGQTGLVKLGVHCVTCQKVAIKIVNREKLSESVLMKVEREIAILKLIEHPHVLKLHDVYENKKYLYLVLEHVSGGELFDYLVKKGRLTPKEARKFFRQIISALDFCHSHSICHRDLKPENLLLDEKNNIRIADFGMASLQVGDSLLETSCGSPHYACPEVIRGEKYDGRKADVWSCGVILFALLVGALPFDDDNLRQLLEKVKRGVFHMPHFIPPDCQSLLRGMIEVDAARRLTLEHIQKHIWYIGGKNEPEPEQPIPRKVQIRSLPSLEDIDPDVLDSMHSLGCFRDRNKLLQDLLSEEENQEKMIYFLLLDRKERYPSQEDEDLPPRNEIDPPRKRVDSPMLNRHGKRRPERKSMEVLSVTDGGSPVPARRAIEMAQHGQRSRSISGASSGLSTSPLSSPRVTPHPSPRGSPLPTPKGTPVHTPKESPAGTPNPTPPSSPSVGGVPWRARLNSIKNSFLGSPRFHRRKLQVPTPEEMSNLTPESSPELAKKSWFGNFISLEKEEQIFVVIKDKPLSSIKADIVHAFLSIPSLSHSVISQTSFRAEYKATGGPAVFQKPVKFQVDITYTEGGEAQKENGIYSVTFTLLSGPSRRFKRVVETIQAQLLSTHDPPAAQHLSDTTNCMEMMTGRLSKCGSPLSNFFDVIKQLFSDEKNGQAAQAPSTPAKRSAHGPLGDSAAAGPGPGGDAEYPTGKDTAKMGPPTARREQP

[3] = target: Sodium-dependent serotonin transporter (Homo sapiens, UniProt P31645); test: Selectivity interaction (Eurofins CEREP Diversity Profile (receptors and ion channels)) EUB0000279b SLC6A4; settings: at 10 µM
Sodium-dependent serotonin transporter, sequence (P31645 whole entry, looked up): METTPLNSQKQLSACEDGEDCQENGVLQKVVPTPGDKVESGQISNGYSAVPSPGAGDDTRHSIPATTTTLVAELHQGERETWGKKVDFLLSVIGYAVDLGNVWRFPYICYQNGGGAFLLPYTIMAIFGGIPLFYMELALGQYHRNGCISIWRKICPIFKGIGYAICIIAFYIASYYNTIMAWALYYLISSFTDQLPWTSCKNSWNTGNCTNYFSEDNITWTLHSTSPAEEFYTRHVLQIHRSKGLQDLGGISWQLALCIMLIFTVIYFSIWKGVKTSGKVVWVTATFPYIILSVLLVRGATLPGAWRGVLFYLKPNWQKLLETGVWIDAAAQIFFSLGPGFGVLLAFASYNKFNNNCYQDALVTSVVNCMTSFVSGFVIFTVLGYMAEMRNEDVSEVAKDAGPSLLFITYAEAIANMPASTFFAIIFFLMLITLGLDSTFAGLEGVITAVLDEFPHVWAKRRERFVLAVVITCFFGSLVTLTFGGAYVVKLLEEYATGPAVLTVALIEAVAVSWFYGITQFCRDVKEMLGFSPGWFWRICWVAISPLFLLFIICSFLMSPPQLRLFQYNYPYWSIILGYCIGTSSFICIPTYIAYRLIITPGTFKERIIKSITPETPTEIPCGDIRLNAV

[4] = target: Vasopressin V2 receptor (Homo sapiens, UniProt P30518); test: Selectivity interaction (Eurofins CEREP Diversity Profile (receptors and ion channels)) EUB0000279b AVPR2; settings: at 10 µM
[5] = target: Ribosomal protein S6 kinase alpha-1 (Homo sapiens, UniProt Q15418); settings: at 10 µM
Ribosomal protein S6 kinase alpha-1, sequence (Q15418 whole entry): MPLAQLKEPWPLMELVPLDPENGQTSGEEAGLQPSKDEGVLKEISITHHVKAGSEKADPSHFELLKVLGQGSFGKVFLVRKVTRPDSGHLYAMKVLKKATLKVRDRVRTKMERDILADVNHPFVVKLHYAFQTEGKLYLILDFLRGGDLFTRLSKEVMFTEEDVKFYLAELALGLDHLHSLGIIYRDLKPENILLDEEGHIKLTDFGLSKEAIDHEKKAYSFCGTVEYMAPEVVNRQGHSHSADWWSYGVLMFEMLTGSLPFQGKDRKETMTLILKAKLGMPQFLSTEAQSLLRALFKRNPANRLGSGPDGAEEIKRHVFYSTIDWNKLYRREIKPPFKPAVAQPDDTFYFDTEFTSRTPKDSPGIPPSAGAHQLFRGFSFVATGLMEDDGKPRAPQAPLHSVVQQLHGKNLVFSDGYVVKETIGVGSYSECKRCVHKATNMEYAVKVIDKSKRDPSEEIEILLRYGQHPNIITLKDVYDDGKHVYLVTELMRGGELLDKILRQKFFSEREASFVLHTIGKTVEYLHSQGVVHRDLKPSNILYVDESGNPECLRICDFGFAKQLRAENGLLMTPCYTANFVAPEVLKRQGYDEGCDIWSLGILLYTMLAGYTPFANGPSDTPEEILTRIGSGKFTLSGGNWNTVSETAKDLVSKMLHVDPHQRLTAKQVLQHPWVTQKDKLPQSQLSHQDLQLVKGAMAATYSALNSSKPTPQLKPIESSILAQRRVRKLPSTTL

[6] = target: AP2-associated protein kinase 1 (Homo sapiens, UniProt Q2M2I8); settings: at 10 µM
AP2-associated protein kinase 1, sequence (Q2M2I8 whole entry, looked up): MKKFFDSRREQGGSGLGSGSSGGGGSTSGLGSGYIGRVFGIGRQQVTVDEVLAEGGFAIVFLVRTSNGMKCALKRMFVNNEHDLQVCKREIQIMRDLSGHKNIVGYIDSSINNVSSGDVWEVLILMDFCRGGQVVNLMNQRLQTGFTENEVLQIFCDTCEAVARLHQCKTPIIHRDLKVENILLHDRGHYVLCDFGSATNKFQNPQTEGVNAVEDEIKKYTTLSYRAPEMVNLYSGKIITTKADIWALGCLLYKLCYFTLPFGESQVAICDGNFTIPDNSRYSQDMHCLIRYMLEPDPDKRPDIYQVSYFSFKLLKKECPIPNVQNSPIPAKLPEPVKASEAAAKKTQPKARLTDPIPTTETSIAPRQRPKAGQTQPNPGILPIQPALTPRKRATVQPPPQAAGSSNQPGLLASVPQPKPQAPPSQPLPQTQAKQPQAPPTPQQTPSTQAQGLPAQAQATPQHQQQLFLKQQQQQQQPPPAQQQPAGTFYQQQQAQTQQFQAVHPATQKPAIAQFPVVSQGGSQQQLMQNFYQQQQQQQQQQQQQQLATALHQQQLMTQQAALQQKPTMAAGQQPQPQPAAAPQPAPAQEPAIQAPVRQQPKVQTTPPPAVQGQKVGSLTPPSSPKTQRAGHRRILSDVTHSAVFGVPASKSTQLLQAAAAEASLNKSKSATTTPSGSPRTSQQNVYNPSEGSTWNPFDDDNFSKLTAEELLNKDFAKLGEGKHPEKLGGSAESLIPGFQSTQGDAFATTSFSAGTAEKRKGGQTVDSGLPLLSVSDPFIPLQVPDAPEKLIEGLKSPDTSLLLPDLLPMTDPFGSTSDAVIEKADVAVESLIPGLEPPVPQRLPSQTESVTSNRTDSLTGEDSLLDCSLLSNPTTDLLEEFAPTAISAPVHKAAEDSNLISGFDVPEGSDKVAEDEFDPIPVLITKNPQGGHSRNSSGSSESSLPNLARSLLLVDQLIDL

[7] = target: Protein arginine N-methyltransferase 3 (Homo sapiens, UniProt O60678); test: Selectivity interaction (Methyltransferase screen (radiometric assays, panel of 8 PRMTs, 21 protein lysine methyltransferases, 3 DNA methyltransferases, and one RNA methyltransferase)) EUB0000271b PRMT3
Protein arginine N-methyltransferase 3, sequence (O60678 2-531 limits assumed): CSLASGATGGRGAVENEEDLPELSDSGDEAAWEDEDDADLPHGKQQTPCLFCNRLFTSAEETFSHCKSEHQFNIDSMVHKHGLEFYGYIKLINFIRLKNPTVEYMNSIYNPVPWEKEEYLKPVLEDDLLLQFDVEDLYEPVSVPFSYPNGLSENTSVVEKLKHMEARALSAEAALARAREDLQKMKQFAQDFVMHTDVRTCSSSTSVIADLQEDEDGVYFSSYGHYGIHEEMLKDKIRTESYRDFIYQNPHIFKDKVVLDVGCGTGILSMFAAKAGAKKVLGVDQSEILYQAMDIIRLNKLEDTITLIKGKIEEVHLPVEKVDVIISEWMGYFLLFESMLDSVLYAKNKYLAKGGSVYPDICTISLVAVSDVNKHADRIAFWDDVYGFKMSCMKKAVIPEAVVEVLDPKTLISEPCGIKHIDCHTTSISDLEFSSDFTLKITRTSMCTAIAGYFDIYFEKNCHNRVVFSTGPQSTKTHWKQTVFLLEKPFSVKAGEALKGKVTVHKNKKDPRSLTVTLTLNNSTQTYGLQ

[8] = target: Rho-associated protein kinase 2 (Homo sapiens, UniProt O75116); test: Selectivity interaction (KinomeScan (DiscoverX)) EUB0000595a ROCK2; settings: at 10 µM
[9] = target: T2, Serine/threonine-protein kinase Chk1 (Homo sapiens) (UniProt O14757); settings: at 10 µM
T2 sequence (whole entry): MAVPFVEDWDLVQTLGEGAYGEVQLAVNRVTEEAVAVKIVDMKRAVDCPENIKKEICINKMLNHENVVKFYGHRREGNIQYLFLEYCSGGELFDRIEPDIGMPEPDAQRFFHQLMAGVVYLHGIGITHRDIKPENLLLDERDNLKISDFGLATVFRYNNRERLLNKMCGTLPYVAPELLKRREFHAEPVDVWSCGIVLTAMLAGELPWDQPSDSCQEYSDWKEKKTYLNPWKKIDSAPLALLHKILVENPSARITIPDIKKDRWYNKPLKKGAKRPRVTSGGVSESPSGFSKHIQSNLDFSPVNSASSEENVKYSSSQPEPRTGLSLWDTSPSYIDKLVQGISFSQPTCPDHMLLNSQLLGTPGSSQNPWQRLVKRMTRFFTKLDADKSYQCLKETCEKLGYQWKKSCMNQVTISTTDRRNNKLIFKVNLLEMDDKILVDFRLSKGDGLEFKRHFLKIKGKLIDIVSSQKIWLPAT

[10] = target: Tyrosine-protein kinase receptor Tie-1 (Homo sapiens) (UniProt P35590); test: Selectivity interaction (KinomeScan (DiscoverX)) EUB0000229b TIE1; settings: at 10 µM
Tyrosine-protein kinase receptor Tie-1 (Homo sapiens), sequence (P35590 whole entry, canonical isoform): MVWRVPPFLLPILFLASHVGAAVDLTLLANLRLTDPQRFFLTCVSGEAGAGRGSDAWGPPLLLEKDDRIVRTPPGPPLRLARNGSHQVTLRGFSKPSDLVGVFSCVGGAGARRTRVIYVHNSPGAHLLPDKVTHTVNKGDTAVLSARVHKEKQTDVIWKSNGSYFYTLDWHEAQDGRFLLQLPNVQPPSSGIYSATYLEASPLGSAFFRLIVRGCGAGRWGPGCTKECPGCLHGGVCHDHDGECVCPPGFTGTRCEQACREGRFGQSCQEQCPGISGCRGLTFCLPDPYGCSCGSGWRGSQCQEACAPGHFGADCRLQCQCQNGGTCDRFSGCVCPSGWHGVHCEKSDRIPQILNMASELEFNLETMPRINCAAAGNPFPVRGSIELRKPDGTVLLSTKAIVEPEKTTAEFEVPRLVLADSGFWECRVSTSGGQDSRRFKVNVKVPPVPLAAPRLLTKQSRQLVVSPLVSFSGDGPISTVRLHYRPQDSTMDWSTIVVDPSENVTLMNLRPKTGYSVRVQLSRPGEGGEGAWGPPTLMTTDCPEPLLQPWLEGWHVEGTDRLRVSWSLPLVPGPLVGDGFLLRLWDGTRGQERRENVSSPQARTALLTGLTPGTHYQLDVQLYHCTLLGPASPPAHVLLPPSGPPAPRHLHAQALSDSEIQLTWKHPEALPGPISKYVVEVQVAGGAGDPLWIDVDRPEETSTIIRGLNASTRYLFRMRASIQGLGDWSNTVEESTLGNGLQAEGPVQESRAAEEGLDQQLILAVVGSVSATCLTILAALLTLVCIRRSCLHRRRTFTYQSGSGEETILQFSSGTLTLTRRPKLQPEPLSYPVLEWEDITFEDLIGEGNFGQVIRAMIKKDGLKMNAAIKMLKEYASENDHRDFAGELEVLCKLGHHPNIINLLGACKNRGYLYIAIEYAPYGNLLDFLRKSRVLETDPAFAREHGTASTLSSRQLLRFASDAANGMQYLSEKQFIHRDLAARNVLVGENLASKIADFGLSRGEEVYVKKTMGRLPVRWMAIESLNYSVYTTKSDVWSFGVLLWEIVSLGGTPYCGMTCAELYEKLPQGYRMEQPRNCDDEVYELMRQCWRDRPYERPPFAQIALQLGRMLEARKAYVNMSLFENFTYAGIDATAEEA

[11] = target: Casein kinase I isoform alpha (Homo sapiens, UniProt P48729); test: Selectivity interaction (KinomeScan (DiscoverX)) EUB0000045b CSNK1A1
Casein kinase I isoform alpha, sequence (P48729 2-337 limits assumed): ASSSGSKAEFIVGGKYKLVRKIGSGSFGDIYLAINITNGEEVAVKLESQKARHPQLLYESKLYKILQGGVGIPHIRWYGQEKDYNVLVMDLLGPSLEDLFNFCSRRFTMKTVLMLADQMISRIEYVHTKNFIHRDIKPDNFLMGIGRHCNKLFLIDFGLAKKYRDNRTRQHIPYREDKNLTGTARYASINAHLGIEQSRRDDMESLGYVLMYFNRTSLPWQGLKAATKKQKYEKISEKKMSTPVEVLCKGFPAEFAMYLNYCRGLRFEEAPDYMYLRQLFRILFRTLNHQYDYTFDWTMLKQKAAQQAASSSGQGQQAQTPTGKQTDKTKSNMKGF

[12] = target: CDK4/Cyclin D3 (Homo sapiens) (UniProt P11802+P30281); test: Selectivity interaction (KinomeScan (DiscoverX)) EUB0001619a CDK4; assay type: protein-complex assay; settings: at 1 µM
[13] = target: T3, Serine/threonine-protein kinase 3 (Homo sapiens) (UniProt Q13188); test: Selectivity interaction (ActivX KiNativ screen (ex vivo kinase selectivity in human PBMCs)) EUB0001619a STK3; assay type: cell-based; settings: PBMC, at 1 µM
T3 sequence (whole entry): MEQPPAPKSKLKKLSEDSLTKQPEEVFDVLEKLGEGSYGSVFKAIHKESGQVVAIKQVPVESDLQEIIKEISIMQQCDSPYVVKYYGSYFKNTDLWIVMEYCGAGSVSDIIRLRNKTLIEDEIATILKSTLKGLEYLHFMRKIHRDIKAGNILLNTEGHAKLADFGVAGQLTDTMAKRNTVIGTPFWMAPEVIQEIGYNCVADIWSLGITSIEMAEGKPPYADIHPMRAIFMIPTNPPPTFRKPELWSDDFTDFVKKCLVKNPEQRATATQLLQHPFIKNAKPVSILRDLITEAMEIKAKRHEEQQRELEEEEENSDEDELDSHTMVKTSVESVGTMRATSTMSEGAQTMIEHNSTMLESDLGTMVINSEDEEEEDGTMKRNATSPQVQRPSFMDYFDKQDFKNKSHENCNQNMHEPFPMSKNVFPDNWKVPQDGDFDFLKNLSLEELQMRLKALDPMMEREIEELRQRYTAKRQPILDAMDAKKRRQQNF

Serine/threonine-protein kinase 38 (Homo sapiens), sequence (Q15208 2-465 limits assumed): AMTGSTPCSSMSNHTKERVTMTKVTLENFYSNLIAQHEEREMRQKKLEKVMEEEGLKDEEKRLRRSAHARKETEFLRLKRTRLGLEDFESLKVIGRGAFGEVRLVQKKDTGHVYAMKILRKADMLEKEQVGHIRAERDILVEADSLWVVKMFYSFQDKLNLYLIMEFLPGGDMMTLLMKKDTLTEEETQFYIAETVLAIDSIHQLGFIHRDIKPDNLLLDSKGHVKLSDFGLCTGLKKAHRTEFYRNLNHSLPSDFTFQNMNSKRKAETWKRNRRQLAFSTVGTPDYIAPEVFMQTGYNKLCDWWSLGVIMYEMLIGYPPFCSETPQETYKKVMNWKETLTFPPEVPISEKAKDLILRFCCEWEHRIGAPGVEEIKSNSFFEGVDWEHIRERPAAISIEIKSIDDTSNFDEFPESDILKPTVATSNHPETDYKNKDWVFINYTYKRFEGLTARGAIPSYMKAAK

- % of inhibition [1]: -3.9%
Compound: CC[C@@H]1[C@H](F)C(=O)N[C@@H]1COc1nccc2cc(C(N)=O)c(OC)cc12 [ZIMLOVISERTIB]

- % of inhibition [2]: -172%
Compound: Cn1cc(-n2cnc3c(NCc4nc5cc(Cl)c(Cl)cc5[nH]4)nc(N4CCOCC4)nc32)cn1

- % of control [3]: 108%
- % of control [4]: 109%
Compound: CC(=O)c1cc(-c2ccccc2OCC2CC2)c2ncccn12

- % of control [5]: 100%
- % of control [6]: 100%
Compound: CCN(CC)CCCCNc1ncc2cc(-c3cc(OC)cc(OC)c3)c(NC(=O)NC(C)(C)C)nc2n1

Compound: Cc1cc(C)cc([C@@H]2c3cc(C)ccc3NC(=O)CN2C(=O)c2ccc(Br)s2)c1
- % of activity ([7]; at 1 µM): 100%
- % of activity ([7]; at 10 µM): 98%

Compound: COCC(=O)NC/C=C/c1ccc2ncnc(Nc3ccc(Oc4ccc(C)nc4)c(C)c3)c2c1 [CP-724714]
- % of control [8]: 100%
- % of control [9]: 90%

Compound: COc1cc(N(C)c2ccnc3ccc(C(F)(F)F)cc23)cc(OC)c1OC
- % binding [10]: 75%

Compound: C=CC(=O)Nc1cc(-n2c(=O)ccc3cnc4ccc(-c5ccc(NS(C)(=O)=O)cc5)cc4c32)ccc1C
- % of control ([11]; at 1 µM): 100%
- % of control ([11]; at 10 µM): 100%

Compound: N#Cc1cccc(-c2c[nH]c3ncnc(N4CCOCC4)c23)c1
- % of control [12]: 100%
- % of inhibition [13]: 83%

Reference: ChEMBL document CHEMBL5465560, “Selectivity Literature for EUbOPEN Chemogenomic Library” (2024)
